Measured values reported in PubChem BioAssay (NCI).
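Values below derive from 48-hour exposures of cells grown in 96-well plates, with endpoints linearly interpolated between the two concentrations bracketing the appropriate inhibition level. Abbreviation: GI50, concentration required for 50% inhibition of growth. The concentration for full growth arrest is given as TGI.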

How the values were obtained:
Experiment in all cases: growth of human tumour cells (NCI), 48 h
[1] = test system: MDA-MB-231 breast
[2] = test system: SN12C renal
[3] = test system: RPMI-8226 leukemia
[4] = test system: U251 CNS
[5] = test system: SK-MEL-5 melanoma
[6] = test system: NCI-H226 lung
[7] = test system: MALME-3M melanoma
[8] = test system: HT29 colon
[9] = test system: HOP-92 NSCLC
[10] = test system: MDA-N

Row | Structure (SMILES) | GI50 [1] [µM] | TGI [1] [µM] | GI50 [2] [µM] | TGI [2] [µM] | GI50 [3] [µM] | TGI [3] [µM] | GI50 [4] [µM] | TGI [4] [µM] | GI50 [5] [µM] | TGI [5] [µM] | GI50 [6] [µM] | TGI [6] [µM] | GI50 [7] [µM] | TGI [7] [µM] | GI50 [8] [µM] | TGI [8] [µM] | GI50 [9] [µM] | TGI [9] [µM] | TGI [10] [µM]
1 | Fc1ccc(-c2ccc(-c3nnc(-c4cc(F)c(Cl)cc4Cl)o3)o2)cc1Cl | 29.7 | > 100 | 33.3 | > 100 | 26.4 | 72.9 | 32.8 | > 100 | 17 | 31.9 | 20.9 | 76.1 | 18.8 | 59 | 22.7 | 50.9 | 38.5 | > 100 | –
2 | c1ccc2sc(C3(N4CCCCC4)CCCC3)cc2c1 | – | – | – | 33.1 | – | 10.4 | – | – | – | 22.9 | – | 13.5 | – | 29.1 | – | 13.5 | – | 25.4 | 35.1
3 | COc1ccc(SC(C)(SC)c2ccccn2)c(OC)n1 (configuration not stated) | – | > 100 | – | > 100 | – | 73.4 | – | > 100 | – | > 100 | – | > 100 | – | > 100 | – | > 100 | – | > 100 | > 100
4 | C[C@]12CC(c3ccccc3O1)C(C(=O)NC13CC4CC(CC(C4)C1)C3)C(=O)N2 (some centres not stated) | – | > 100 | – | – | – | 31.3 | – | > 100 | – | 33.3 | – | 71.3 | – | > 100 | – | 30.8 | – | 55.8 | 43.8
5 | CC(=O)OCC1OC(O[C@@H]2c3c(O)c4c(c(O)c3C3=C(NN(c5ccc([N+](=O)[O-])cc5[N+](=O)[O-])[Se]3=O)[C@@]2(C)O)C(=O)c2ccccc2C4=O)C(OC(C)=O)C(OC(C)=O)C1OC(C)=O (some centres not stated) | – | 1.48 | – | 0.552 | – | 0.372 | – | 0.458 | – | 0.42 | – | 0.947 | – | 0.355 | – | 0.57 | – | 2.05 | 0.753
6 | O=S(=O)(O)c1c(N=Nc2c(O)ccc3ccccc23)ccc2ccccc12 | – | > 100 | – | > 100 | – | > 100 | – | > 100 | – | > 100 | – | > 100 | – | > 100 | – | > 100 | – | > 100 | > 100
7 | O=C1c2ccccc2-c2ccc(N=[N+]([O-])c3ccc4c(c3)C(=O)c3ccccc3-4)cc21 | – | > 100 | – | > 100 | – | > 100 | – | > 100 | – | > 100 | – | > 100 | – | > 100 | – | > 100 | – | > 100 | > 100
8 | COC(=O)C1=CC[C@@H]2C(C(=O)O)=CO[C@@H](OC3OC(CO)C(O)C(O)C3O)[C@H]12 (some centres not stated) | – | – | – | > 300 | – | > 300 | – | > 300 | – | > 288 | – | > 300 | – | > 300 | – | > 300 | – | > 127 | –
9 | C=C1C(=O)OC2C1C(OC(=O)/C(C)=C/C)CC1(C)C(=O)CCC(=C)C21 (configuration not stated) | – | 38.4 | – | 4.09 | – | 7.97 | – | > 54.4 | – | 22.8 | – | 55.9 | – | 23.3 | – | 22 | – | 19.9 | 18.1
10 | N#C/C=C1\C=CC(O)C(O)C1OC1OC(CO)C(O)C(O)C1O (configuration not stated) | – | > 100 | – | > 100 | – | > 100 | – | > 100 | – | > 100 | – | – | – | > 100 | – | > 100 | – | > 100 | > 100
